US8906928B2, “Substituted pyrazolo-pyrrolo-pyridine-dione compounds” (ArQule, Inc., priority 2009, dated 2014)

Key:
Assay type in all cases: cell-based
DLD-1 = experiment: MTS assay (cell growth inhibition), DLD-1; conditions: DLD-1 cells, 72 hours incubation with test compound; concentration not given
Method: (§1) Cells were maintained at 37° C., 5% CO2 in DMEM media supplemented with 1% fetal bovine serum, penicillin/streptomycin and fungizone (Invitrogen). Cells were seeded into 96-well tissue culture plates at 3000 per well and cultured at 37° C. for 18 hours. Test compounds were dissolved and diluted to 300× in DMSO then diluted 1:40 in DMEM. Cells were incubated with test compounds for 72 hours followed by incubation with tetrazolium compound (3-(4,5-dimethylthiazol-2-yl)-5-(3-carboxymethoxyphenyl)-2-(4-sulfophenyl)-2H-tetrazolium, inner salt; MTS) and the electron coupling reagent, phenazine methosulfate (PMS) for 4 hours. […] The ability of compounds to inhibit cell growth in this assay is correlated with the reduction of dehydrogenase enzyme activity found in metabolically active cells. The measurement of the absorbance of the formazan was assessed using an ENVISION™ (Perkin Elmer) microplate reader at 492 nm. The calculated IC50 value is the concentration of the test compound that causes a 50% decrease in the absorbance.

Kato III = experiment: MTS assay (cell growth inhibition), Kato III; conditions: Kato III cells, 72 hours incubation with test compound; concentration not given
Method: as §1

MDA-MB = experiment: MTS assay (cell growth inhibition), MDA-MB; conditions: MDA-MB cells, 72 hours incubation with test compound; concentration not given
Method: as §1

NCI-H1299 = experiment: MTS assay (cell growth inhibition), NCI-H1299; conditions: NCI-H1299 cells, 72 hours incubation with test compound; concentration not given
Method: as §1

PC-3 = experiment: MTS assay (cell growth inhibition), PC-3; conditions: PC-3 cells, 72 hours incubation with test compound; concentration not given
Method: as §1

PACA-2 = experiment: MTS assay (cell growth inhibition), PACA-2; conditions: PACA-2 cells, 72 hours incubation with test compound; concentration not given
Method: as §1

SMILES: O=C1c2cnc3[nH]nc(-c4cc5ccccc5o4)c3c2C(=O)N1CCc1ccccc1 [Example 158, 1-(1-benzofuran-2-yl)-7-(2-phenylethyl)pyrazolo[3,4-b]pyrrolo[3,4-d]pyridine-6,8(3H,7H)-dione]
- MTS CELL KILL DATA (% INHIBITION) DLD-1 (DLD-1): B (B = 50-79% INHIBITION)
- MTS CELL KILL DATA (% INHIBITION) Kato III (Kato III): A (A = 80-100% INHIBITION)
- MTS CELL KILL DATA (% INHIBITION) MDA-MB (MDA-MB): B (B = 50-79% INHIBITION)
- MTS CELL KILL DATA (% INHIBITION) NCI-H1299 (NCI-H1299): A (A = 80-100% INHIBITION)
- MTS CELL KILL DATA (% INHIBITION) PC-3 (PC-3): B (B = 50-79% INHIBITION)
- MTS CELL KILL DATA (% INHIBITION) PACA-2 (PACA-2): C (C = <50% INHIBITION)

SMILES: O=C1c2cnc3[nH]ncc3c2C(=O)N1CC1=Cc2ccccc2S1(=O)=O [Example 119, 7-[(1,1-dioxido-1-benzothien-2-yl)methyl]pyrazolo[3,4-b]pyrrolo[3,4-d]pyridine-6,8(3H,7H)-dione]
- MTS CELL KILL DATA (% INHIBITION) DLD-1 (DLD-1): C (C = <50% INHIBITION)
- MTS CELL KILL DATA (% INHIBITION) Kato III (Kato III): C (C = <50% INHIBITION)
- MTS CELL KILL DATA (% INHIBITION) MDA-MB (MDA-MB): B (B = 50-79% INHIBITION)
- MTS CELL KILL DATA (% INHIBITION) NCI-H1299 (NCI-H1299): C (C = <50% INHIBITION)
- MTS CELL KILL DATA (% INHIBITION) PC-3 (PC-3): C (C = <50% INHIBITION)
- MTS CELL KILL DATA (% INHIBITION) PACA-2 (PACA-2): C (C = <50% INHIBITION)

SMILES: O=C1c2cnc3[nH]ncc3c2C(=O)N1Cc1c(F)ccc(Cl)c1Cl [Example 97, 7-(2,3-dichloro-6-fluorobenzyl)pyrazolo[3,4-b]pyrrolo[3,4-d]pyridine-6,8(3H,7H)-dione]
- MTS CELL KILL DATA (% INHIBITION) DLD-1 (DLD-1): C (C = <50% INHIBITION)
- MTS CELL KILL DATA (% INHIBITION) Kato III (Kato III): C (C = <50% INHIBITION)
- MTS CELL KILL DATA (% INHIBITION) MDA-MB (MDA-MB): C (C = <50% INHIBITION)
- MTS CELL KILL DATA (% INHIBITION) NCI-H1299 (NCI-H1299): C (C = <50% INHIBITION)
- MTS CELL KILL DATA (% INHIBITION) PC-3 (PC-3): C (C = <50% INHIBITION)
- MTS CELL KILL DATA (% INHIBITION) PACA-2 (PACA-2): C (C = <50% INHIBITION)

SMILES: CSc1cccc(-c2n[nH]c3ncc4c(c23)C(=O)N(CCc2ccccc2)C4=O)c1 [Example 159, 1-[3-(methylsulfanyl)phenyl]-7-(2-phenylethyl)pyrazolo[3,4-b]pyrrolo[3,4-d]pyridine-6,8(3H,7H)-dione]
- MTS CELL KILL DATA (% INHIBITION) DLD-1 (DLD-1): A (A = 80-100% INHIBITION)
- MTS CELL KILL DATA (% INHIBITION) Kato III (Kato III): A (A = 80-100% INHIBITION)
- MTS CELL KILL DATA (% INHIBITION) MDA-MB (MDA-MB): A (A = 80-100% INHIBITION)
- MTS CELL KILL DATA (% INHIBITION) NCI-H1299 (NCI-H1299): A (A = 80-100% INHIBITION)
- MTS CELL KILL DATA (% INHIBITION) PC-3 (PC-3): A (A = 80-100% INHIBITION)
- MTS CELL KILL DATA (% INHIBITION) PACA-2 (PACA-2): A (A = 80-100% INHIBITION)

SMILES: O=C1c2cnc3[nH]ncc3c2C(=O)N1Cc1cccnc1 [Example 38, 7-(pyridin-3-ylmethyl)pyrazolo[3,4-b]pyrrolo[3,4-d]pyridine-6,8(3H,7H)-dione]
- MTS CELL KILL DATA (% INHIBITION) DLD-1 (DLD-1): A (A = 80-100% INHIBITION)
- MTS CELL KILL DATA (% INHIBITION) Kato III (Kato III): A (A = 80-100% INHIBITION)
- MTS CELL KILL DATA (% INHIBITION) MDA-MB (MDA-MB): A (A = 80-100% INHIBITION)
- MTS CELL KILL DATA (% INHIBITION) NCI-H1299 (NCI-H1299): C (C = <50% INHIBITION)
- MTS CELL KILL DATA (% INHIBITION) PC-3 (PC-3): C (C = <50% INHIBITION)
- MTS CELL KILL DATA (% INHIBITION) PACA-2 (PACA-2): A (A = 80-100% INHIBITION)

SMILES: COc1c(C)cnc(CN2C(=O)c3cnc4[nH]ncc4c3C2=O)c1C [Example 72, 7-[(4-methoxy-3,5-dimethylpyridin-2-yl)methyl]pyrazolo[3,4-b]pyrrolo[3,4-d]pyridine-6,8(3H,7H)-dione]
- MTS CELL KILL DATA (% INHIBITION) DLD-1 (DLD-1): C (C = <50% INHIBITION)
- MTS CELL KILL DATA (% INHIBITION) Kato III (Kato III): A (A = 80-100% INHIBITION)
- MTS CELL KILL DATA (% INHIBITION) MDA-MB (MDA-MB): A (A = 80-100% INHIBITION)
- MTS CELL KILL DATA (% INHIBITION) NCI-H1299 (NCI-H1299): C (C = <50% INHIBITION)
- MTS CELL KILL DATA (% INHIBITION) PC-3 (PC-3): A (A = 80-100% INHIBITION)
- MTS CELL KILL DATA (% INHIBITION) PACA-2 (PACA-2): C (C = <50% INHIBITION)

SMILES: CC(=O)Nc1cccc(-c2n[nH]c3ncc4c(c23)C(=O)N(CCc2ccccc2)C4=O)c1 [Example 167, N-{3-[6,8-dioxo-7-(2-phenylethyl)-3,6,7,8-tetrahydropyrazolo[3,4-b]pyrrolo[3,4-d]pyridin-1-yl]phenyl}acetamide]
- MTS CELL KILL DATA (% INHIBITION) DLD-1 (DLD-1): A (A = 80-100% INHIBITION)
- MTS CELL KILL DATA (% INHIBITION) Kato III (Kato III): A (A = 80-100% INHIBITION)
- MTS CELL KILL DATA (% INHIBITION) MDA-MB (MDA-MB): A (A = 80-100% INHIBITION)
- MTS CELL KILL DATA (% INHIBITION) NCI-H1299 (NCI-H1299): A (A = 80-100% INHIBITION)
- MTS CELL KILL DATA (% INHIBITION) PC-3 (PC-3): A (A = 80-100% INHIBITION)
- MTS CELL KILL DATA (% INHIBITION) PACA-2 (PACA-2): A (A = 80-100% INHIBITION)

SMILES: O=C1c2cnc3[nH]ncc3c2C(=O)N1Cc1ccccc1I [Example 111, 7-(2-iodobenzyl)pyrazolo[3,4-b]pyrrolo[3,4-d]pyridine-6,8(3H,7H)-dione]
- MTS CELL KILL DATA (% INHIBITION) DLD-1 (DLD-1): C (C = <50% INHIBITION)
- MTS CELL KILL DATA (% INHIBITION) Kato III (Kato III): C (C = <50% INHIBITION)
- MTS CELL KILL DATA (% INHIBITION) MDA-MB (MDA-MB): C (C = <50% INHIBITION)
- MTS CELL KILL DATA (% INHIBITION) NCI-H1299 (NCI-H1299): C (C = <50% INHIBITION)
- MTS CELL KILL DATA (% INHIBITION) PC-3 (PC-3): C (C = <50% INHIBITION)
- MTS CELL KILL DATA (% INHIBITION) PACA-2 (PACA-2): C (C = <50% INHIBITION)
